Data from PubChem BioAssay AID1845206 (Molecular Pharmacology Branch, DTP, NCI, 2023).

Test system: NCI-H1618 multicellular tumor spheroid viability
Assay: Anticancer human tumor NCI-H1618 cell line growth inhibition;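 note: spheroids exposed to agents for 7 days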
Conditions: for IC50: curve of first compound; for viability, T/C: stronger effect = lower value
Procedure, shortened: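 Complex tumor spheroids combined malignant cells with endothelial cells and mesenchymal stem cells. DNA-damaging drugs and DNA repair inhibitors were tested alone and in combination, at half-log dilutions down from clinical Cmax (top 10 microM if Cmax unknown), 0.25% DMSO final.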

[1] = second compound 0.003 µM, first compound 0.0316 µM
[2] = second compound 0.003 µM, first compound 0.1 µM
[3] = second compound 0.003 µM, first compound 0.316 µM
[4] = second compound 0.003 µM, first compound 1 µM
[5] = second compound 0.003 µM, first compound 3.16 µM
[6] = second compound 0.003 µM, first compound 10 µM
[7] = second compound 0.00949 µM, first compound 0.0316 µM
[8] = second compound 0.00949 µM, first compound 0.1 µM
[9] = second compound 0.00949 µM, first compound 0.316 µM
[10] = second compound 0.00949 µM, first compound 1 µM
[11] = second compound 0.00949 µM, first compound 3.16 µM
[12] = second compound 0.00949 µM, first compound 10 µM
[13] = second compound 0.03 µM, first compound 0.0316 µM
[14] = second compound 0.03 µM, first compound 0.1 µM
[15] = second compound 0.03 µM, first compound 0.316 µM
[16] = second compound 0.03 µM, first compound 1 µM
[17] = second compound 0.03 µM, first compound 3.16 µM
[18] = second compound 0.03 µM, first compound 10 µM
[19] = second compound 0.0949 µM, first compound 0.0316 µM
[20] = second compound 0.0949 µM, first compound 0.1 µM
[21] = second compound 0.0949 µM, first compound 0.316 µM
[22] = second compound 0.0949 µM, first compound 1 µM
[23] = second compound 0.0949 µM, first compound 3.16 µM
[24] = second compound 0.0949 µM, first compound 10 µM
[25] = second compound 0.3 µM, first compound 0.0316 µM
[26] = second compound 0.3 µM, first compound 0.1 µM
[27] = second compound 0.3 µM, first compound 0.316 µM
[28] = second compound 0.3 µM, first compound 1 µM
[29] = second compound 0.3 µM, first compound 3.16 µM
[30] = second compound 0.3 µM, first compound 10 µM

Row | SMILES | IC50 (second compound 0.003 µM) [nM] | IC50 (second compound 0.00949 µM) [nM] | IC50 (second compound 0.03 µM) [nM] | IC50 (second compound 0.0949 µM) [nM] | IC50 (second compound 0.3 µM) [nM] | viability, T/C [1] [%] | viability, T/C [2] [%] | viability, T/C [3] [%] | viability, T/C [4] [%] | viability, T/C [5] [%] | viability, T/C [6] [%] | viability, T/C [7] [%] | viability, T/C [8] [%] | viability, T/C [9] [%] | viability, T/C [10] [%] | viability, T/C [11] [%] | viability, T/C [12] [%] | viability, T/C [13] [%] | viability, T/C [14] [%] | viability, T/C [15] [%] | other results
1 | CC(C)n1c(=O)n(C)c2cnc3cc(F)c(-c4ccc(OCCCN5CCCCC5)nc4)cc3c21 + CC[C@@]1(O)C(=O)OCc2c1cc1n(c2=O)Cc2cc3c(CN(C)C)c(O)ccc3nc2-1 | > 10000 | < 31.6 | < 31.6 | < 31.6 | < 31.6 | 56.8 | 51.4 | 51.9 | 66.7 | 72.7 | 38.1 | 7.93 | 4.31 | 8.14 | 10.5 | 12.8 | 14.4 | 4.99 | 4.95 | 4.02 | viability, T/C [16]: 2.3%; viability, T/C [17]: 2.79%; viability, T/C [18]: 1.82%; viability, T/C [19]: 4.98%; viability, T/C [20]: 3.54%; viability, T/C [21]: 8.33%; viability, T/C [22]: 4.32%; viability, T/C [23]: 7.17%; viability, T/C [24]: 4.95%; viability, T/C [25]: 4.62%; viability, T/C [26]: 4.88%; viability, T/C [27]: 4.27%; viability, T/C [28]: 4.09%; viability, T/C [29]: 5.96%; viability, T/C [30]: 6.01%
2 | COc1ccc([C@@H](O)c2cc(-c3ncnc4cc(N5CCOCC5)ccc34)c(F)cc2Cl)nn1 + CC[C@@]1(O)C(=O)OCc2c1cc1n(c2=O)Cc2cc3c(CN(C)C)c(O)ccc3nc2-1 | 2580 | < 31.6 | < 31.6 | < 31.6 | < 31.6 | 98.9 | 71.7 | 95.3 | 77 | 44.2 | 14.9 | 42.3 | 27.2 | 54 | 48.5 | 36 | 11.8 | 2.44 | 3.37 | 3.22 | viability, T/C [16]: 2.13%; viability, T/C [17]: 2.99%; viability, T/C [18]: 0.99%; viability, T/C [19]: 4.05%; viability, T/C [20]: 2.6%; viability, T/C [21]: 6.24%; viability, T/C [22]: 2.56%; viability, T/C [23]: 1.11%; viability, T/C [24]: 1.58%; viability, T/C [25]: 2.38%; viability, T/C [26]: 2.02%; viability, T/C [27]: 2.24%; viability, T/C [28]: 2.64%; viability, T/C [29]: 1.97%; viability, T/C [30]: 0.5%
